In US20120010075A1 (priority 2009, published 2012):
Read-outs that look alike come from different tables or passages of the source.

What was measured:
[1] = test system: Leptosphaeria nodorum (LEPTNO); experiment: In vitro fungitoxicity of hydrazones with and without copper towards Leptosphaeria nodorum (Example 26); format: cell-based; settings: 72 h at 25° C.; for inhibition of growth at 0.05 µg/mL: Parastagonospora nodorum, 72 h, copper-minus medium, read-out: LEPTNO % Inhn. Minus Copper Observed
Phytophthora infestans = format: in vivo, Phytophthora infestans on tomato; settings: applied 24 h before inoculation, assessed 7 days after inoculation
[2] = test compound Concn. 0.05 μg/mL
[3] = copper-plus medium (CuCl2 10 μM), test compound Concn. 0.05 μg/mL
[4] = hydrazone 50 ppm with 50 μM CuCl2.2H2O, tomato late blight
[5] = compound 0.05 μg/mL, copper-plus medium (CuCl2.2H2O)
[6] = hydrazone 50 ppm + 50 μM CuCl2.2H2O, tomato

| Structure (SMILES) | melting point [°C] | inhibition of growth at 0.05 µg/mL [1, 2] [%] | LEPTNO % Inhn. Plus Copper Observed [1, 3] [%] | TLB % Control (Phytophthora infestans; [4]) [%] | inhibition of growth at 0.05 µg/mL ([1]; compound 0.05 μg/mL) [%] | LEPTNO % Inhn. Plus Copper Observed [1, 5] [%] | TLB % Control (Phytophthora infestans; [6]) [%] |
| --- | --- | --- | --- | --- | --- | --- | --- |
| O=C(N/N=C/c1cc(Cl)cc(C(F)(F)F)c1O)c1ccc([N+](=O)[O-])cc1 [Example 383] | 245 to 247 | 20.3 | 95.7 | 100.0 | – | – | – |
| C/C(=N\NC(=O)c1cccc(Cl)c1)c1cccc([N+](=O)[O-])c1O [Example 273] | 251 to 286 | – | – | – | 0.4 | 97.7 | 44.0 |
| Cc1cccc(C(=O)N/N=C/c2cc(Cl)ccc2O)c1 [Example 419] | 188 to 196 | 3.2 | 94.9 | 90.0 | – | – | – |
| O=C(N/N=C/c1cc(Cl)cc(Cl)c1O)c1ccc2ccccc2c1 [Example 92] | 215 to 217 | – | – | – | 1.9 | 98.2 | 71.9 |
| C/C(=N\NC(=O)c1ccc(Br)cc1)c1cc(Cl)ccc1O [Example 512] | 269 to 271 | 7.4 | 97.8 | 59.0 | – | – | – |
| O=C(N/N=C/c1ccc(Cl)c(Cl)c1O)c1ccc([N+](=O)[O-])cc1 [Example 361] | 237 to 243 | 3.3 | 96.4 | 97.0 | – | – | – |
| C/C(=N\NC(=O)c1ccc(Br)cc1)c1cc(Br)ccc1O [Example 517] | 270 to 275 | 0 | 96.7 | 56.0 | – | – | – |
| COc1ccc(C(=O)N/N=C(\C)c2cc(Cl)cc(Cl)c2O)c(O)c1 [Example 477] | 310 to 312 | 6.2 | 83.4 | 93.0 | – | – | – |
| CC(C)(C)N(/N=C/c1ccccc1O)C(=O)c1ccccc1 [Example 217] | 91 to 104 | – | – | – | 0 | 92.7 | 0.0 |
| COc1cc(O)c(/C(C)=N/NC(=O)c2ccccc2C)c(OC)c1 [Example 584] | 269 to 274 | 3 | 11.8 | 7.6 | – | – | – |
| Cc1cccc(C(=O)N/N=C/c2c(C(F)(F)F)ccc(Cl)c2O)c1 [Example 447] | 219 to 221 | 20 | 96.6 | 100.0 | – | – | – |
| Cc1cccc(C(=O)N/N=C/c2c(O)cccc2Cl)c1 [Example 398] | 245 to 248 | 5.4 | 94.7 | 98.0 | – | – | – |
| COc1ccc(/C(C)=N/NC(=O)c2ccc(C(F)(F)F)cc2)c(O)c1OC [Example 560] | 229 to 233 | 1.3 | 90.7 | 65.0 | – | – | – |
| Cc1ccc(C(=O)N/N=C/c2cc(Cl)cc(C(F)(F)F)c2O)c(O)c1 [Example 386] | 252 to 254 | 41.1 | 98.4 | 100.0 | – | – | – |
| COc1cccc(C(=O)N/N=C/c2cc(Br)cc(Br)c2O)c1C [Example 108] | 188 to 189 | – | – | – | 21.3 | 97.6 | 50.9 |
| COc1ccc(/C(C)=N/NC(=O)c2ccccc2)c(O)c1 [Example 280] | 211 to 213 | – | – | – | 2.2 | 98.2 | 88.0 |
| O=C(N/N=C/c1c(O)cccc1Cl)c1cccc(F)c1 [Example 400] | 257 to 259 | 0.5 | 97.9 | 96.0 | – | – | – |
